Where two headings read alike, the source gives them in different places.
Legend:
PDK2 [1] = target: T1, PDK2 (Homo sapiens, UniProt Q15119); assay: Isothermal titration calorimetry (ITC), binding to PDK2; parameters: made in house
Protocol: (§1) Recombinant human PDK2 was expressed and purified as a N terminal His6-tagged SUMO fusion protein with a tobacco-etch-virus protease (TEV) cleavage site in front of the N-terminal PDK2 sequence (26), and was used directly for the activity assay and binding affinity analyses. […] The purified protein was concentrated to 35-40 mg/ml and stored at −80° C. in small aliquots. Recombinant human PDK1, PDK3 and PDK4 were expressed and purified as described previously (26).
(§2) The PDK2 or Hsp90 N-terminal domain protein was dialyzed against one liter of the dialysis buffer containing 50 mM Tris-Cl, pH 7.5, 50 mM KCl, 1 mM MgCl2, and 0.5 mM β-mercaptoethanol. […] All of the ITC data were initially analyzed by the NITPIC program (32) to construct the baseline, followed by curve-fitting in Origin 7 to obtain binding parameters.

PDK2 [2] = target: T1, PDK2; assay: Assay for inhibition of PDK activity, PDK2; format: biochemical; parameters: made in house
Protocol: as §1
(§3) The remaining steps were described previously (26). IC50 values were obtained by the curve fitting of inhibition isotherms using Prism 6 (GraphPad software, Inc.).

PDK3 [3] = target: T2, PDK3 (Homo sapiens, UniProt Q15120); details: literature value; read-out: IC50 (ATP-competitive inhibitor, PDK3); cited from earlier work
Target sequence in this assay (Q15120 whole entry, species assumed): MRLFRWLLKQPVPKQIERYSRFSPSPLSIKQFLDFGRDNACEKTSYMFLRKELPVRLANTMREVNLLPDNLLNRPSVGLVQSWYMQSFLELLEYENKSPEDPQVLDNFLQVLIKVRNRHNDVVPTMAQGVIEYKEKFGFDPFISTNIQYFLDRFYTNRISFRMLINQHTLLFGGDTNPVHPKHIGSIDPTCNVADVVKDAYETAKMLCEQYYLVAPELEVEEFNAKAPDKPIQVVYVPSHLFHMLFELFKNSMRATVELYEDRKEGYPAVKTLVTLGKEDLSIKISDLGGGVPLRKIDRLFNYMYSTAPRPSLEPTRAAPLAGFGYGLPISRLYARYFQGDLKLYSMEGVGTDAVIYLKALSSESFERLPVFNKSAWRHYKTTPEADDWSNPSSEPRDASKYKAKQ

PDK4 [4] = target: T3, PDK4 (Homo sapiens, UniProt Q16654); assay: Assay for inhibition of PDK activity, PDK4; format: biochemical; parameters: made in house
Protocol: as §1, §3
Target sequence in this assay (Q16654 whole entry): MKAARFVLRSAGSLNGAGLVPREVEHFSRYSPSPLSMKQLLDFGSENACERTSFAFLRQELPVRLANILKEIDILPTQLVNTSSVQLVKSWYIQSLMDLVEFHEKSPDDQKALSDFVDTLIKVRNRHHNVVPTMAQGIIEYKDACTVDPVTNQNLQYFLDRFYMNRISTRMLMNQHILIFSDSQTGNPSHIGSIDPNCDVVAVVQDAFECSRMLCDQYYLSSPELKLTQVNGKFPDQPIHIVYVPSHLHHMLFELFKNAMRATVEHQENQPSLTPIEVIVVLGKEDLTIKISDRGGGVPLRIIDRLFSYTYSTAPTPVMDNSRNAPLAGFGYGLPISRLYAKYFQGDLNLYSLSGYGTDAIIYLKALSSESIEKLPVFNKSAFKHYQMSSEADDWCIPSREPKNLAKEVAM

[5] = target: T4, N-terminal domain of human Hsp90 (Homo sapiens, UniProt P07900); assay: Isothermal titration calorimetry (ITC), binding to Hsp90 N-terminal domain; details: read-out: Kd, nM for Hsp 90
T4 construct: the N-terminal domain (residue 1-236) of human Hsp90; His6 (N); SUMO (N); made in house; host or cells: E. coli BL21
Protocol: The sequence encoding the N-terminal domain was amplified and cloned into the pSUMO expression vector (Lifesensors, Malvern, Pa.). The fusion protein of His6-tagged SUMO-Hsp90 N-terminal domain was expressed in E. coli BL21 cells and purified with Ni-NTA resin (Qiagen) and on Superdex-200 column in 20 mM Tris.HCl, pH 7.5 and 500 mM NaCl.
as §2

[6] = Half-life in vitro in hepatic S9 fractions; format: in vitro ADME; details: data not shown
[7] = Pharmacokinetic studies in mice after IP dosing; format: in vivo; details: 20 mg/kg IP, female CD-1 mice, plasma
Protocol: Twenty-one male C57BL/6J mice were dosed IP with 70 mg/kg PS-10, 0.2 ml/mouse formulated as 10% DMSO/20% water/70% of 25% (2-hydroxypropyl)-β-cyclodextrin for determination of PS-10 PK. Twenty-one female CD-1 mice were dosed IP with 20 mg/kg PS-8, 0.2 ml/mouse formulated as 5% ethanol and 95% of 0.1 M sodium bicarbonate pH 9.0 for determination of PS-8 PK. Animal (n=3) were sacrificed and whole blood was harvested for each time point. Plasma was processed from whole blood by centrifugation of the ACD treated blood for 10′ at 10,000 rpm in a standard centrifuge. The analytical processing of blood samples and pharmacokinetics studies using LC/MS/MS were as described previously with LC/MS/MS methods optimized for detection of PS-10 and PS-8 (33).

PDK2 [8] = target: T1, PDK2; assay: biochemical
Protocol: The kinase-profiling of PS8 on 21 human protein kinases were performed at Reaction Biology Corp. (Malvern, Pa.). […] Each protein kinase was also tested against its known inhibitor as a positive control.
The selectivity of PS8 was studied by determining IC50 for the inhibition of a 21-kinase panel including PDK2. […] Except PDK4, PDK isoforms anchor to the E2/E3BP of PDC for optimal kinase activity in vivo.

PDK3 [9] = target: T2, PDK3; assay: Assay for inhibition of PDK activity, PDK3; format: biochemical; parameters: made in house
Protocol: (§4) Recombinant human PDK2 was expressed and purified as a N terminal His6-tagged SUMO fusion protein with a tobacco-etch-virus protease (TEV) cleavage site in front of the N-terminal PDK2 sequence (26), and was used directly for the activity assay and binding affinity analyses. For crystallization, the protein was subjected to a TEV-protease digestion, and the untagged PDK2 protein was purified on a Superdex 200 column in 20 mM Tris-HCl (pH 8.0), 150 mM NaCl and 5 mM DTT. The purified protein was concentrated to 35-40 mg/ml and stored at −80° C. in small aliquots. Recombinant human PDK1, PDK3 and PDK4 were expressed and purified as described previously (26).
(§5) . The remaining steps were described previously (26). IC50 values were obtained by the curve fitting of inhibition isotherms using Prism 6 (GraphPad software, Inc.).
Target sequence in this assay (Q15120 whole entry): as the sequence (Q15120 whole entry, species assumed) above

human PDK1 = target: T5, human PDK1 (Homo sapiens, UniProt Q15118); assay: Assay for inhibition of PDK activity, PDK1; format: biochemical
T5 construct: made in house
T5 sequence (Q15118 29-436): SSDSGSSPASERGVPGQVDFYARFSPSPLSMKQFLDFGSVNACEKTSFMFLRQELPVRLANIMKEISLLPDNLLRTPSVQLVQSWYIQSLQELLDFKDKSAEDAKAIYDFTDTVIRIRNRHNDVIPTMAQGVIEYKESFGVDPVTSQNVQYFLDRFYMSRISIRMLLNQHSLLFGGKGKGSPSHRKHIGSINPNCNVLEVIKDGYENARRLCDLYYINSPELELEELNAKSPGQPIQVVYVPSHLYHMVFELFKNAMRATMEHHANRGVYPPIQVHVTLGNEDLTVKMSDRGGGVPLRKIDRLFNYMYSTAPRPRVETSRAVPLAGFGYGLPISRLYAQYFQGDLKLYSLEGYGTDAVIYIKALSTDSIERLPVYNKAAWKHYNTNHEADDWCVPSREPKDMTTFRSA
Protocol: as §4, §5

PDK = details: literature value; read-out: IC50 (known PDK inhibitor); cited from earlier work
PDK4 [10] = target: T3, PDK4; details: literature value; cited from earlier work
Target sequence in this assay (Q16654 whole entry, species assumed): as the sequence (Q16654 whole entry) above

Hsp90 = details: literature value; cited from earlier work
[11] = Table 1, inhibitor 31.6 nM to 1 mM, read-out: IC50, μM for PDK2
[12] = Table 1, inhibitor 31.6 nM to 1 mM, read-out: IC50, μM for PDK4

## O=S(=O)(c1ccc(O)cc1O)N1Cc2ccc(NC3CCN(CC(O)CO)CC3)cc2C1 (stereo not shown) [PS38]
PDK2 [1]
  Kd: 188 nM

## C[C@@H]1C[C@H]2O[C@@H]2/C=C\C=C\C(=O)Cc2c(Cl)c(O)cc(O)c2C(=O)O1 [Radicicol, radicicol, reference compound]
PDK2 [2]; [11]
  IC50: 77.8 µM
PDK2 [1]; ITC, read-out: Kd, nM for PDK2
  Kd: 18600 nM
PDK3 [3]
  IC50: 230 to 400 µM

## O=S(=O)(c1ccc(O)cc1O)N1Cc2ccc(O)cc2C1 [PS8, 4-((5-hydroxyisoindolin-2-yl)sulfonyl)benzene-1,3-diol]
PDK4 [4]; [12]
  IC50: 1.1 µM
PDK4 [4]; presence of E2/E3BP core (+), read-out: IC50 for PDK4
  IC50: 0.84 ± 0.08 µM
[5]
  Kd: 60100 nM
[6]
  half-life: > 240 min
[7]
  CL/F: 1.55 mL/min
[7]; mouse
  AUC(0-t): 5170 ng·h/mL
  Cmax: 7600 ng/mL
  Tmax: 10 min
[7]; mouse, read-out: Terminal T1/2
  half-life: 93.3 min
[7]; mouse, read-out: Vz/F
  Vd/F: 0.209 L
PDK2 [8]
  IC50: 70 nM
PDK2 [8]; 21-kinase panel, next lowest CDK1/cyclin B
  IC50 of all other kinases on the panel relative to PDK2: at least 3 orders of magnitude
PDK2 [2]; [11]
  IC50: 1.07 µM
PDK2 [2]; presence of E2/E3BP core (+), read-out: IC50 for PDK2
  IC50: 0.71 ± 0.14 µM
PDK2 [1]; ITC, read-out: Kd, nM for PDK2
  Kd: 426 nM
PDK3 [9]; absence of E2/E3BP core (−)
  IC50: 13.7 ± 2.08 µM
PDK3 [9]; presence of E2/E3BP core (+)
  IC50: 2.55 ± 0.38 µM
Human PDK1; absence of E2/E3BP core (−)
  IC50: 2500 ± 140 nM
Human PDK1; presence of E2/E3BP core (+)
  IC50: 2140 ± 330 nM

## O=C(O)CCCCN1CCC(Nc2ccc3c(c2)CN(S(=O)(=O)c2ccc(O)cc2O)C3)CC1 [PS41]
PDK2 [1]
  Kd: 1400 nM

## O=S(=O)(c1ccc(O)cc1O)N1Cc2ccc(NC3CCNCC3)cc2C1 [PS35]
PDK2 [2]
  IC50: 0.61 µM
PDK2 [1]
  Kd: 143 nM

## O=C(C1C[C@@H](O)C(O)[C@H](O)C1)N1CCC(Nc2ccc3c(c2)CN(S(=O)(=O)c2ccc(O)cc2O)C3)CC1 (stereo partly shown) [PS39]
PDK2 [1]
  Kd: 338 nM

## C[C@@H]1CN(C(=O)[C@@](C)(O)C(F)(F)F)[C@@H](C)CN1C(=O)c1ccc(C#N)cc1 [compound 3, (+)-1-N-[2,5-(S,R)-dimethyl-4-N-(4-cyanobenzoyl)piperazine]-(R)-3,3,3-trifluoro-2-hydroxy-2-methylpropan-amide]
PDK
  IC50: 16 nM

## O=C(c1ccc(O)cc1O)N1Cc2ccccc2C1 [PA7, (2,4-dihydroxyphenyl)(isoindolin-2-yl)methanone]
PDK4 [4]; [12]
  IC50: 1.05 µM
PDK2 [2]; [11]
  IC50: 5.68 µM
PDK2 [1]; ITC, read-out: Kd, nM for PDK2
  Kd: 1830 nM

## O=S(=O)(c1ccc(O)cc1O)N1Cc2ccccc2C1 [PS2, 4-(isoindolin-2-ylsulfonyl)benzene-1,3-diol]
PDK4 [4]; [12]
  IC50: 2.2 µM
[5]
  Kd: 50900 nM
PDK2 [2]; [11]
  IC50: 2.11 µM
PDK2 [1]; ITC, read-out: Kd, nM for PDK2
  Kd: 711 nM
PDK2 [1]; from Kd values for PDK2 and Hsp90
  shift in binding affinities in favor of PDK2 (carbonyl in PA7 to sulfonyl in PS2): 4,791 fold

## COc1ccc(-c2c(-c3ccc(O)cc3O)n[nH]c2C)cc1 [Compound M77976]
PDK4 [10]
  IC50: 648 µM
Hsp90
  IC50: 4.4 µM

## O=C(c1cc(Br)c(O)cc1O)N1Cc2ccccc2C1 [PA1, (5-bromo-2,4-dihydroxyphenyl)(isoindolin-2-yl)methanone]
PDK4 [4]; [12]
  IC50: 1.86 µM
PDK2 [2]; [11]
  IC50: 6.78 µM
PDK2 [1]; ITC, read-out: Kd, nM for PDK2
  Kd: 3570 nM

## O=C(O)CCCN1CCC(Nc2ccc3c(c2)CN(S(=O)(=O)c2ccc(O)cc2O)C3)CC1 [PS42]
PDK2 [1]
  Kd: 917 nM

## O=C(C1=C[C@@H](O)[C@@H](O)[C@H](O)C1)N1CCC(Nc2ccc3c(c2)CN(S(=O)(=O)c2ccc(O)cc2O)C3)CC1 [PS40]
PDK2 [1]
  Kd: 403 nM

Source: patent publication US10167258B2, “Inhibitors of mitochondrial pyruvate dehydrogenase kinase isoforms 1-4 and uses thereof” (The Board of Regents of the University of Texas System, priority 2013, dated 2019)
